Laboratory results published in patent publication US5804571A (U.S. Bioscience, priority 1995, dated 1998).

Experiments:
[1] = test system: murine hematopoietic system; assay: exogenous spleen colony (CFU-S) assay, toxicity to the murine hematopoietic system; format: in vivo; conditions: CFU-S assay 20 hrs after drug administration, mice
Description: To evaluate toxicity to the murine hematopoietic system, an exogenous spleen colony (CFU-S) assay was used. A suitable number of murine […] are injected (intravenously) into lethally irradiated syngeneic mice (Ref. Hodgson, G. S., and Bradley, T. R., Properties of Haematopoietic Stem Cells Surviving 5-FU Treatment: Evidence for a pre-CFU-S Cell48, Nature 281:381, 1979).
Colonies are found in the spleen of the recipients on Day 9 or 10; there is a linear relationship between the number of cells injected and the number of spleen colonies. The spleen colonies originate from a single cell, and contain cells of the erythroid, granulocytic and megakaryocytic series.
At 20 hours after drug administration, each mouse was sacrificed and bone marrow was extracted from the femurs into McCoy's 5A medium (GIBCOm Grand Island, N.Y.) on ice. Nucleated marrow cells were quantitated, and 5×10^4 cells were injected intravenously into syngeneic recipient mice one hour after they received 800 rads whole body radiation. Nine days later, the recipient animals were sacrificed, and the spleens were removed and fixed in Boulin's solution. Surface colonies were then counted.

[2] = AZT recipients, cited from earlier work
[3] = test system: human immunodeficiency virus (HIV); conditions: cited from earlier work
[4] = placebo 4 percent (P less than 0.001)

SMILES	CFU-S Survival (% of Control) ([1]; AZT alone, 400 mg/kg ip) [%]	neutropenia (less than 500 cells per cubic millimeter), share of recipients ([2]; placebo 2 percent (P less than 0.001)) [%]	anemia with hemoglobin levels below 7.5 per deciliter, share of recipients [2, 4] [%]	required multiple red-cell transfusions, share of recipients [2, 4] [%]	clinical benefits with AIDS ([3]; AIDS patients)	serious adverse reactions ([3]; human, in vivo)	CFU-S Survival (% of Control) ([1]; phosphorothioate 900 mg/kg po, followed in 30 minutes with AZT 400 mg/kg ip) [%]
Cc1cn([C@H]2C[C@H](N=[N+]=[N-])[C@@H](CO)O2)c(=O)[nH]c1=O [AZT, 3'-azido-3'-deoxythymidinc]	18	16	24	21	clinical benefits with AIDS have been reported	serious adverse reactions, particularly bone marrow suppression were observed	–
CNCCCNCCCSP(=O)(O)O [S-3-(3-methylaminopropylamino)propyl dihydrogen phosphorothioate]	–	–	–	–	–	–	68
